# From patent US20090209536A1, “AMINOQUINAZOLINE CANNABINOID RECEPTOR MODULATORS FOR TREATMENT OF DISEASE” (KALYPSYS, INC., priority 2007, published 2009)
# Where two headings read alike, the source gives them in different places.
# What was measured:
# [1] = target: T1, human cannabinoid receptor type 2 (Homo sapiens, UniProt P34972); experiment: Human CB2 Radioligand Binding Assay; conditions: membranes from stably transfected CHO CB2 cells
# T1 construct: expressed in transfected cells; membrane preparation
# In short: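 Filtration competition binding on membranes from CHO cells stably expressing human CB2, with [3H]CP-55,940 at its lot-specific Kd, in 50 mM Tris-HCl pH 7.4, EGTA, MgCl2, 5 mg/ml BSA, 1% DMSO; 90 min at 30° C. Compounds at 10 uM single point or dose-response; bound radioactivity by scintillation, 100 nM CP-55,940 as 100% efficacy.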
# [2] = target: T2, human cannabinoid receptor type 1 (Homo sapiens, UniProt P21554); experiment: Human CB1 Radioligand Binding Assay (basis of selectivity, CB2 vs. CB1); conditions: CB1: HEK 293 EBNA cells expressing human CB1; CB2: CHO CB2 membranes
# T2 construct: purchased Perkin Elmer RBHCB1M; host or cells: HEK 293 EBNA cells
# Method: 2. Human CB1 Radioligand Binding Assay
# The incubation buffer was composed of 50 mM Tris-HCl pH 7.4, 2.5 mM EDTA, 5 mM MgCl2, 5.0 mg/ml fatty acid free BSA and the wash buffer was composed of 50 mM Tris-HCl pH 7.4, 2.5 mM EDTA, 5 mM MgCl2, 0.5 mg/ml fatty acid free BSA.
# [3] = competition with [3H] CP-55,940, read-out: CB2 Ligand Binding Asssay EC50
# T1 sequence (P34972 whole entry): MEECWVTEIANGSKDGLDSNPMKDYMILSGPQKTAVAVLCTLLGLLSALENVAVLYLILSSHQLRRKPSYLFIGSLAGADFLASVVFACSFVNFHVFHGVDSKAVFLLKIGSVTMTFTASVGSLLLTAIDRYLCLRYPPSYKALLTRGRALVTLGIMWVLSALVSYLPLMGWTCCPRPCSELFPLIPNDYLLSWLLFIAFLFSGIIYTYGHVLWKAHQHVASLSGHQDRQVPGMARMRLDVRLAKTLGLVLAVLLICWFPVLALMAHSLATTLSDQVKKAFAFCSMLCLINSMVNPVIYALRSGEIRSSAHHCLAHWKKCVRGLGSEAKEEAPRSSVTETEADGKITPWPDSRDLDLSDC
# T2 sequence (P21554 whole entry): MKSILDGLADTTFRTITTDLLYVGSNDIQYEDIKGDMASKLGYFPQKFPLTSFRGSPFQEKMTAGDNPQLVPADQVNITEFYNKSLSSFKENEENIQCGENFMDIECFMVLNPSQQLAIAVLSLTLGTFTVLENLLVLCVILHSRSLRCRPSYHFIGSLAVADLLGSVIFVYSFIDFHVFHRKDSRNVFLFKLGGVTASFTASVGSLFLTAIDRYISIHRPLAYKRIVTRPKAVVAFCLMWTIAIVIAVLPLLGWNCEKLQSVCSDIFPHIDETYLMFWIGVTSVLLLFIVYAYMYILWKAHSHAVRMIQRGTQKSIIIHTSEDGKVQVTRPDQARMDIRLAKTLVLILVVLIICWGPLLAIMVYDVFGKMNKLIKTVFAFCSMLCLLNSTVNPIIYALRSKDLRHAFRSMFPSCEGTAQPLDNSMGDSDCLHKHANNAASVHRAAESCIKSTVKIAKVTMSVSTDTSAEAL
Compound,"EC50 [1, 3] [nM]","Selectivity, CB2 vs. CB1 [2]","EC50 ([1]; CB2 Ligand Binding Asssay EC50, competition with [3H] CP-55,940) [nM]"
"CNC(=O)c1sccc1S(=O)(=O)NCc1nc(N2CCCC2)c2ccccc2n1 [Example 8, N-Methyl-3-(N-((4-(pyrrolidin-1-yl)quinazolin-2-yl)methyl)sulfamoyl)thiophene-2-carboxamide]",> 1000,+ (+ indicates > 10−fold),
"CCOC(=O)N1CCN(c2nc(-c3ccc(C(C)(C)C)cc3)nc3ccc(Cl)cc23)CC1 [Example 252, Ethyl 4-(2-(4-tert-butylphenyl)-6-chloroquinazolin-4-yl)piperazine-1-carboxylate]",> 1000,− (− indicates ≦ 10−fold),
"Clc1ccc(-c2nc(N3CCCC3)c3ccccc3n2)c(Cl)c1 [Example 28, 2-(2,4-Dichlorophenyl)-4-pyrrolidin-1-ylquinazoline]",> 1000,+ (+ indicates > 10−fold),
"CCNC(=O)N1CCN(c2nc(-c3ccccc3Cl)nc3ccccc23)CC1 [Example 87, 4-(2-(2-chlorophenyl)quinazolin-4-yl)-N-ethylpiperazine-1-carboxamide]",> 1000,− (− indicates ≦ 10−fold),
"Cn1ccnc1N1CCN(c2nc(-c3ccccc3Cl)nc3ccccc23)CC1 [Example 257, 2-(2-Chlorophenyl)-4-(4-(1-methyl-1H-imidazol-2-yl)piperazin-1-yl)quinazoline]",> 1000,− (− indicates ≦ 10−fold),
"Clc1ccccc1Nc1nc(C2CCCCC2)nc2ccccc12 [Example 37, N-(2-Chlorophenyl)-2-cyclohexylquinazolin-4-amine]",> 1000,− (− indicates ≦ 10−fold),
"CCS(=O)(=O)N1CCN(c2nc(-c3ccccc3Cl)nc3ccccc23)CC1 [Example 85, 2-(2-Chlorophenyl)-4-(4-(ethylsulfonyl)piperazin-1-yl)quinazoline]",,− (− indicates ≦ 10−fold),> 1000
"Cc1ccccc1Nc1nc(-c2ccccc2Cl)nc2ccccc12 [Example 331, 2-(2-Chlorophenyl)-N-o-tolylquinazolin-4-amine]",> 1000,− (− indicates ≦ 10−fold),
CCCCN1CCN(c2nc(-c3ccccc3Cl)nc3ccccc23)CC1 [Example 107],> 1000,− (− indicates ≦ 10−fold),
"COC(=O)N1CCN(c2nc(-c3ccccc3Cl)nc3ccccc23)CC1 [Example 92, Methyl 4-(2-(2-Chlorophenyl)quinazolin-4-yl)piperazine-1-carboxylate]",> 1000,− (− indicates ≦ 10−fold),
"CC(C)CC(=O)N1CCN(c2nc(-c3ccccc3Cl)nc3cccc(Cl)c23)CC1 [Example 283, 1-(4-(5-Chloro-2-(2-chlorophenyl)quinazolin-4-yl)piperazin-1-yl)-3-methylbutan-1-one]",> 1000,− (− indicates ≦ 10−fold),
"c1ccc(-c2nc(NCC3CC3)c3ccccc3n2)cc1 [Example 50, N-(Cyclopropylmethyl)-2-phenylquinazolin-4-amine]",> 1000,− (− indicates ≦ 10−fold),
"Clc1ccccc1-c1nc(NCC2CC2)c2ccccc2n1 [Example 56, 2-(2-Chlorophenyl)-N-(cyclopropylmethyl)quinazolin-4-amine]",> 1000,− (− indicates ≦ 10−fold),
"c1ccc2c(N3CCOCC3)nc(C3CCCCC3)nc2c1 [Example 35, 4-(2-Cyclohexylquinazolin-4-yl)morpholine]",< 1000,− (− indicates ≦ 10−fold),
"CN1CCN(c2nc(CNS(=O)(=O)c3cccc4ccccc34)nc3ccccc23)CC1 [Example 5, N-((4-(4-Methylpiperazin-1-yl)quinazolin-2-yl)methyl)naphthalene-1-sulfonamide]",< 1000,+ (+ indicates > 10−fold),
"CN1CCN(c2nc(C3CCCCC3)nc3ccccc23)CC1 [Example 33, 2-Cyclohexyl-4-(4-methylpiperazin-1-yl)quinazoline]",< 1000,− (− indicates ≦ 10−fold),
"CC(C)(C)c1ccc(-c2nc(Nc3ccc(F)c(F)c3)c3ccccc3n2)cc1 [Example 117, 2-(4-tert-Butylphenyl)-N-(3,4-difluorophenyl)quinazolin-4-amine]",< 1000,− (− indicates ≦ 10−fold),

# More lines, main results first:
"EC50 [1, 3] [nM]","Selectivity, CB2 vs. CB1 [2]",Compound,"EC50 ([1]; CB2 Ligand Binding Asssay EC50, competition with [3H] CP-55,940) [nM]"
< 1000,+ (+ indicates > 10−fold),"CN1CCN(c2nc(-c3ccc(Cl)cc3)nc3ccccc23)CC1 [Example 122, 2-(4-Chlorophenyl)-4-(4-methylpiperazin-1-yl)quinazoline]",
< 1000,− (− indicates ≦ 10−fold),"Fc1ccc(-c2nc(N3CCCC3)c3ccccc3n2)cc1F [Example 13, 2-(3,4-Difluorophenyl)-4-(pyrrolidin-1-yl)quinazoline]",
< 1000,+ (+ indicates > 10−fold),"CC(=O)N1CCN(c2nc(-c3ccccc3Cl)nc3cccc(C(F)(F)F)c23)CC1 [Example 240, 1-(4-(2-(2-Chlorophenyl)-5-(trifluoromethyl)quinazolin-4-yl)piperazin-1-yl)ethanone]",
< 1000,+ (+ indicates > 10−fold),"O=C(C1CC1)N1CCN(c2nc(-c3ccccc3Cl)nc3ccccc23)CC1 [Example 97, (4-(2-(2-Chlorophenyl)quinazolin-4-yl)piperazin-1-yl)(cyclopropyl)methanone]",
< 1000,+ (+ indicates > 10−fold),"CC(C)(C)c1ccc2nc(-c3ccccc3Cl)nc(N3CCSCC3)c2c1 [Example 169, 4-(6-tert-Butyl-2-(2-chlorophenyl)quinazolin-4-yl)thiomorpholine]",
< 1000,− (− indicates ≦ 10−fold),"FC(F)(F)Oc1ccc2nc(-c3ccccc3Cl)nc(N3CCSCC3)c2c1 [Example 204, 4-(2-(2-Chlorophenyl)-6-(trifluoromethoxy)quinazolin-4-yl)thiomorpholine]",
< 1000,+ (+ indicates > 10−fold),"FC(F)(F)c1ccc(-c2nc(N3CCCC3)c3ccccc3n2)cc1 [Example 45, 4-(Pyrrolidin-1-yl)-2-(4-(trifluoromethyl)phenyl)quinazoline]",
< 1000,+ (+ indicates > 10−fold),"Cc1cccc2c(N3CCCC3)nc(CNS(=O)(=O)c3cccc4ccccc34)nc12 [Example 2, N-((8-Methyl-4-(pyrrolidin-1-yl)quinazolin-2-yl)methyl)naphthalene-1-sulfonamide]",
< 1000,+ (+ indicates > 10−fold),"CCOC(=O)N1CCN(c2nc(-c3ccccc3Cl)nc3cccc(F)c23)CC1 [Example 247, Ethyl 4-(2-(2-chlorophenyl)-5-fluoroquinazolin-4-yl)piperazine-1-carboxylate]",
< 1000,+ (+ indicates > 10−fold),"CN1CCN(c2nc(-c3ccc(Cl)cc3)nc3ccc(OC(F)(F)F)cc23)CC1 [Example 225, 2-(4-Chlorophenyl)-4-(4-methylpiperazin-1-yl)-6-(trifluoromethoxy)quinazoline]",
< 1000,+ (+ indicates > 10−fold),"Fc1ccccc1-c1nc(N2CCCC2)c2c(F)cccc2n1 [Example 282, 5-Fluoro-2-(2-fluorophenyl)-4-(pyrrolidin-1-yl)quinazoline]",
< 1000,+ (+ indicates > 10−fold),"COc1ccc2nc(-c3ccc(C(C)(C)C)cc3)nc(N3CCCC3)c2c1 [Example 251, 2-(4-tert-Butylphenyl)-6-methoxy-4-(pyrrolidin-1-yl)quinazoline]",
< 1000,+ (+ indicates > 10−fold),"COc1ccc2nc(C3CCCCC3)nc(N3CCCC3)c2c1 [Example 162, 2-Cyclohexyl-6-methoxy-4-(pyrrolidin-1-yl)quinazoline]",
< 1000,− (− indicates ≦ 10−fold),"Clc1ccc2nc(-c3ccccc3Cl)nc(N3CCSCC3)c2c1 [Example 207, 4-(6-Chloro-2-(2-chlorophenyl)quinazolin-4-yl)thiomorpholine]",
< 1000,+ (+ indicates > 10−fold),"CC(C)(C)c1ccc(-c2nc(N3CCSCC3)c3ccccc3n2)cc1 [Example 114, 2-(4-tert-Butylphenyl)-4-thiomorpholin-4-ylquinazoline]",
< 1000,+ (+ indicates > 10−fold),"CCC(=O)N1CCN(c2nc(-c3ccccc3Cl)nc3ccccc23)CC1 [Example 98, 1-(4-(2-(2-Chlorophenyl)quinazolin-4-yl)piperazin-1-yl)propan-1-one]",
< 1000,+ (+ indicates > 10−fold),"CCOC(=O)N1CCN(c2nc(-c3ccccc3Cl)nc3ccc(F)cc23)CC1 [Example 269, Ethyl 4-(2-(2-chlorophenyl)-6-fluoroquinazolin-4-yl)piperazine-1-carboxylate]",
< 1000,+ (+ indicates > 10−fold),"CCOC(=O)N1CCN(c2nc(-c3ccccc3Cl)nc3cccc(Cl)c23)CC1 [Example 266, Ethyl 4-(5-chloro-2-(2-chlorophenyl)quinazolin-4-yl)piperazine-1-carboxylate]",
